According to patent publication US12128035B2, “Activating pyruvate kinase R” (Novo Nordisk Health Care AG, priority 2021, dated 2024):

Legend:
Format in all cases: in vivo, human
[1] = system: 2,3-DPG blood levels; assay: Phase 1: blood 2,3-DPG in SCD patients
Procedure: (§1) In this study, SAD/MAD cohorts are randomized (3 to 1) to receive Compound 1 or placebo (P). Compound 1 was evaluated first in 4 healthy SAD cohorts and 4 healthy MAD (14-day dosing period) cohorts. Based on the safety, and PK/PD profile from HS, Compound 1 is then evaluated in 1 SCD SAD cohort and 2 SCD MAD cohorts. Specifically, based on the safety and pharmacokinetic/pharmacodynamics (PK/PD) profile in healthy volunteer studies, Compound 1 is evaluated in patients (pts) with SCD, first in a single dose (SD or SAD) cohort and then in multiple-dose (MD or MAD) cohorts (14-day and 12-week). Safety assessments include AEs, vital signs, ECGs and laboratory parameters. PK/PD blood sampling was performed on Day 1 (SAD/MAD) and Day 14 (MAD) and up to 72 h after the last dose and at the end-of-study visit. PD parameters included 2,3-DPG, ATP, and p50 in all cohorts with additional PD studies (including oxygen scan) performed only in the SCD cohorts. PD parameters included 2,3-DPG, ATP, p50, RBC deformability with controlled deoxygenation and reoxygenation (Lorrca® oxygen scan) and varying osmolality (Lorrca® osmoscan)). To maintain study blind, pt identifiers were removed when needed.
(§2) The onset of the increase in ATP blood levels after a single 700 mg dose of Compound 1 was faster in SCD patients than in healthy volunteers, while the onset of the decrease in 2,3-DPG blood levels was slower.
(§3) The following procedures are employed for the analysis of ATP and 2,3-DPG in human whole blood K2EDTA using a protein precipitation extraction procedure and analysis by LC-MS/MS.
(§4) The following procedures are used for sample extraction prior to analysis via LC-MS/MS. 15.0 μL of the calibration standards, quality controls, matrix blanks, and samples are aliquoted into a 96-well plate. 50.0 μL of the internal standard spiking solution is added to all samples on the plate, with the exception of the matrix blank samples; 50.0 μL of water is added to the matrix blank samples. Subsequently, 150 μL of water is added to all samples on the plate. The plate is then covered and agitated by vortex at high speed for ten minutes, after which 750 μL of methanol is added to all samples on the plate. The plate is covered and agitated by vortex for approximately 1 minute. The plate is then centrifuged at approximately 3500 RPM at approximately 4° C. for five minutes. After centrifugation, a liquid handler is used to transfer 50 μL of each sample to a new 96-well plate, and 200 μL of acetonitrile is added to all samples on the plate. The newly prepared plate is covered and agitated by vortex for approximately 1 minute. The plate is then centrifuged at approximately 3500 RPM at approximately 4° C. for 2 minutes.

[2] = system: ATP blood levels; assay: Phase 1: blood ATP in SCD patients
Procedure: as §1, §2, §3, §4

[3] = Phase 1 SAD/MAD: safety (adverse events) in healthy volunteers
Procedure: as §1
Outcome Measures Primary Outcome Measures: • 1. Incidence, frequency, and severity of adverse events (AEs) per CTCAE v5.0 of a single ascending dose and multiple ascending doses of Compound 1 in adult healthy volunteers and SCD patients. Incidence of abnormal laboratory test results (clinical chemistry, endocrine hematology, urinalysis). Change from baseline in vital signs (blood pressure, respiratory rate, heart rate, and oral temperature). Incidence of treatment-emergent clinically significant abnormal findings in ECGs. • [Time Frame: Up to 3 weeks of monitoring] • 2. […] Area under the plasma concentration-time curve from time zero until the 24-hour time point (AUC0-24) • [Time Frame: Up to 3 weeks of testing] • 5. Area under the plasma concentration-time curve from time zero until last quantifiable time point (AUC0-last) • [Time Frame: Up to 3 weeks of testing] • 6. Area under the plasma concentration-time curve from time zero to infinity (AUC0-inf) • [Time Frame: Up to 3 weeks of testing] • 7. […] Apparent volume of distribution (Vd/F) • [Time Frame: Up to 3 weeks of testing] • 10. Terminal disposition rate constant (Lz) • [Time Frame: Up to 3 weeks of testing] • 11. […] Secondary Outcome Measures: • 12. Change from baseline in the levels of 2,3-diphosphoglycerate (DPG) and adenosine triphosphate (ATP) in the red blood cells (RBCs) of healthy volunteers and SCD patients after single and multiple doses of Compound 1. • [Time Frame: Up to 3 weeks of testing] • 13. […] Change from baseline heart rate after a single dose of Compound 1 in healthy volunteers and/or SCD subjects • [Time Frame: up to 7 days] • 15. Change from baseline PR after a single dose of Compound 1 in healthy volunteers and/or SCD subjects • [Time Frame: up to 7 days] • 16. Change from baseline QRS (AHR, APR, and AQRS) after a single dose of Compound 1 in healthy volunteers and/or SCD subjects • [Time Frame: up to 7 days] • 17. Change from baseline T-wave morphology after a single dose of Compound 1 in healthy volunteers and/or SCD subjects • [Time Frame: up to 7 days] Exploratory Outcome Measures: • 18. Effect of food on Cmax, AUC0-24/AUClast • 19. Effect of AUClast/AUC0-24, Cmax, minimum plasma concentration (Cmin), peak-to trough ratio, dose linearity, accumulation ratio on safety, PD, and hematologic parameters of interest, as assessed by exposure-response analyses • 20. Effect of 2,3-DPG reduction in RBCs on the oxyhemoglobin dissociation curve (p50; partial pressure of O2 at which 50% of hemoglobin is saturated with O2) after a single dose and after chronic dosing of Compound 1 • 21. Effect of chronic Compound 1 dosing on normal and SCD RBC deformability by osmotic gradient ektacytometry and oxygen gradient ektacytometry • 22. […]

[4] = SCD 300 mg QD, Day 1, 0 h after first daily dose
[5] = SCD 300 mg QD, Day 1, 24 h after first daily dose
[6] = SCD 300 mg QD, Day 14, 0 h after first daily dose
[7] = SCD 300 mg QD, Day 14, 6 h after first daily dose
[8] = SCD 300 mg QD, Day 14, 24 h after first daily dose
[9] = SCD 300 mg QD, Day 14, 48 h after first daily dose
[10] = SCD single 700 mg, 0 h after dose
[11] = SCD single 700 mg, 6 h after dose
[12] = SCD single 700 mg, 24 h after dose
[13] = SCD single 700 mg, 48 h after dose
[14] = SCD single 700 mg, 72 h after dose
[15] = SCD, 24 hours after single 700-mg dose, FIG. 46A

With `O=C([C@H](CO)c1ccccc1)N1CC2=C(C1)CN(S(=O)(=O)c1cnc3c(c1)OCCO3)C2` (single isomer, unassigned) [Compound 1] the “mean percentage change in 2,3-DPG blood levels” value [1, 4] was 0%, the “mean percentage change in 2,3-DPG blood levels” value [1, 5] was −23% and the “mean percentage change in 2,3-DPG blood levels” value [1, 6] was −25%. For the same compound, the “mean percentage change in 2,3-DPG blood levels” value [1, 7] was −29%, the “mean percentage change in 2,3-DPG blood levels” value [1, 8] was −29% and the “mean percentage change in 2,3-DPG blood levels” value [1, 9] was −22%. The “mean percentage change in 2,3-DPG blood levels” value [1, 10] was 0%, the “mean percentage change in 2,3-DPG blood levels” value [1, 11] was −16% and the “mean percentage change in 2,3-DPG blood levels” value [1, 12] was −31%. For the same compound, the “mean percentage change in 2,3-DPG blood levels” value [1, 13] was −21%, the “mean percentage change in 2,3-DPG blood levels” value [1, 14] was −8% and the “lag of maximum decrease in blood 2,3-DPG behind maximum plasma concentration” value ([1]; SCD single 700 mg, FIG. 54B) was “about 24 hours”. For the same compound, the “decrease in 2,3-DPG blood concentrations” value [1, 15] was 26%, the “mean percentage change in ATP blood levels” value [2, 4] was 0% and the “mean percentage change in ATP blood levels” value [2, 5] was 14%. The “mean percentage change in ATP blood levels” value [2, 6] was 47%, the “mean percentage change in ATP blood levels” value [2, 7] was 44% and the “mean percentage change in ATP blood levels” value [2, 8] was 45%. For the same compound, the “mean percentage change in ATP blood levels” value [2, 9] was 35%, the “mean percentage change in ATP blood levels” value [2, 10] was 0% and the “mean percentage change in ATP blood levels” value [2, 11] was 14%. For the same compound, the “mean percentage change in ATP blood levels” value [2, 12] was 30%, the “mean percentage change in ATP blood levels” value [2, 13] was 30% and the “mean percentage change in ATP blood levels” value [2, 14] was 32%. The “lag of maximum increase in blood ATP behind maximum plasma concentration” value ([2]; SCD single 700 mg, FIG. 54A) was “at least 24 hours”, the “increase in ATP blood concentrations” value [2, 15] was 30% and the “Grade 1 headache (most common AE)” value ([3]; HS receiving 14 days) was 28%. The “Grade 1 headache (most common AE)” value ([3]; HS receiving a single dose) was 4%, the “Any TEAE, n (%)” value ([3]; HV MAD Compound 1 N = 36) was 15 (42) n (%) and the “Any grade 3 or greater TEAE, n (%)” value ([3]; HV MAD Compound 1 N = 36) was 0 n (%). For the same compound, the “Drug interruption, reduction, or discontinuation due to TEAE, n (%)” value ([3]; HV MAD Compound 1 N = 36) was 0 n (%), the “related TEAE of grade 2 or less: headache” value ([3]; HV MAD cohorts) was 4 n and the “related TEAE of grade 2 or less: palpitations” value ([3]; HV MAD cohorts) was 1 n. For the same compound, the “related TEAE of grade 2 or less: somnolence” value ([3]; HV MAD cohorts) was 1 n, the “Any TEAE, n (%)” value ([3]; HV SAD Compound 1 N = 24) was 5 (21) n (%) and the “Any grade 3 or greater TEAE, n (%)” value ([3]; HV SAD Compound 1 N = 24) was 1 (4) n (%). For the same compound, the “Drug interruption, reduction, or discontinuation due to TEAE, n (%)” value ([3]; HV SAD Compound 1 N = 24) was 0 n (%), the “related TEAE of grade 2 or less: headache” value ([3]; HV SAD cohorts) was 1 n and the “related TEAE of grade 2 or less: transient ventricular tachycardia” value ([3]; HV SAD cohorts) was 1 n. The “serious adverse events / AEs leading to withdrawal” value ([3]; SAD and MAD cohorts of healthy volunteers) was “No serious adverse events (SAEs) or AEs leading to withdrawal were reported”.
